From patent US20080262084A1, “Stable Emulsion Compositions for Intravenous Administration Having Preservatie Efficacy” (priority 2004, published 2008)

How the values were obtained:
[1] = cited from earlier work
[2] = system: Candida albicans ATCC 10231, Pseudomonas aeruginosa ATCC 9027, Escherichia coli ATCC 8739 and Staphylococcus aureus ATCC 6538; test: Preservative efficacy, overall result on the four standard U.S.P. organisms; assay type: cell-based; details: Monolaurin at 0.01% w/v in the emulsion, organisms tested
Procedure: The said aliquots were incubated at a temperature of 20-25° C. for fungal culture and 30 to 35° C. for bacterial culture as recommended under “Antimicrobial effectiveness testing” in United States Pharmacopeia, Chapter 51 (U.S.P. <51>).
(for fungal cultures) and 32° C.±2° C. (for bacterial cultures). The viable counts of the test organisms were determined after 24 hours and 48 hours.

rats = details: administered orally; cited from earlier work
Swiss Albino Mice = test: Safety study with Monolaurin, daily intravenous administration for 7 days (Example XII); details: Monolaurin group versus EDTA group
Procedure: Compositions of Example IX, X and M were studied along with 5% Dextrose Injection as control.
The objective of this study was to access the safety of Monolaurin as such and in comparison with EDTA when administered into mice by an intravenous route.
Forty healthy Swiss albino mice weighing on an average 20-22 g were used in this study.
Toxicity was determined after administration of study materials.
Data was recorded as Mean +SD and median values for histopathological data.
Student's paired t-test was used to compare basal and final values of the parametric data within the same group and Student's unpaired t-test was used to compare values between two different groups. A ‘p’ value of <0.05 was considered as significant.
All experimental animals were observed daily for seven days for following parameters:
Each animal was weighed before the administration of study material and daily during the treatment period.

[3] = system: broad spectrum microbial growth; details: Edetate at concentrations of 0.0025% and below; cited from earlier work

Structure (SMILES) | solubility in aqueous media ([1]; aqueous media) | solubility in fat solvents ([1]; chloroform, benzene, ethanol, or acetone) | effectiveness as preservative (preventing a growth of not more than 10 fold) [2] | LD50 (rats) | Histopathological data (Swiss Albino Mice) | preventing a no more than 10 fold increase in broad spectrum microbial growth [3]
CCCCCCCCCCCC(=O)OCC(O)CO (stereo not shown) [Monolaurin] | insoluble | highly soluble | effective as a preservative | about 53,000 mg/kg body weight | compare well | –
O=C([O-])CN(CCN(CC(=O)[O-])CC(=O)O)CC(=O)O.[Na+].[Na+] [EDTA, Disodium edetate, reference compound] | – | – | – | – | compare well | ineffective
